Assay results published in PubChem BioAssay (NCI).
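Five compound concentrations were applied to cells in 96-well plates for 48 hours; endpoints were derived by simple linear interpolation of the resulting dose-response curve. Definition used: TGI = concentration required for complete inhibition of growth.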

Assays:
Assay in all cases: DTP human tumour cell line panel, 48 h
DMS 114 small cell lung = tested on: DMS 114 small cell lung
NCI-H522 lung = tested on: NCI-H522 lung
EKVX NSCLC = tested on: EKVX NSCLC
SF-268 CNS = tested on: SF-268 CNS
HCT-116 colon = tested on: HCT-116 colon
RXF-631 renal = tested on: RXF-631 renal
UO-31 renal = tested on: UO-31 renal
RXF 393 renal = tested on: RXF 393 renal
SNB-75 CNS = tested on: SNB-75 CNS
OVCAR-3 ovarian = tested on: OVCAR-3 ovarian
LOX IMVI melanoma = tested on: LOX IMVI melanoma
OVCAR-8 ovarian = tested on: OVCAR-8 ovarian
SF-295 CNS = tested on: SF-295 CNS
M19-MEL melanoma = tested on: M19-MEL melanoma
TK-10 renal = tested on: TK-10 renal
SNB-78 CNS = tested on: SNB-78 CNS
HOP-92 NSCLC = tested on: HOP-92 NSCLC
A549 NSCLC = tested on: A549 NSCLC
HT29 colon = tested on: HT29 colon
RPMI-8226 leukemia = tested on: RPMI-8226 leukemia
IGROV1 ovarian = tested on: IGROV1 ovarian
HOP-18 NSCLC = tested on: HOP-18 NSCLC
UACC-62 melanoma = tested on: UACC-62 melanoma
CAKI-1 renal = tested on: CAKI-1 renal
MOLT-4 leukemia = tested on: MOLT-4 leukemia
XF 498 CNS = tested on: XF 498 CNS
U251 CNS = tested on: U251 CNS
LXFL 529 NSCLC = tested on: LXFL 529 NSCLC
OVCAR-4 ovarian = tested on: OVCAR-4 ovarian
ACHN renal = tested on: ACHN renal
SF-539 CNS = tested on: SF-539 CNS
SK-OV-3 ovarian = tested on: SK-OV-3 ovarian
NCI-H23 lung = tested on: NCI-H23 lung
DLD-1 colon = tested on: DLD-1 colon
SR leukemia = tested on: SR leukemia
UACC-257 melanoma = tested on: UACC-257 melanoma
SK-MEL-28 melanoma = tested on: SK-MEL-28 melanoma
HOP-62 NSCLC = tested on: HOP-62 NSCLC
NCI-H226 lung = tested on: NCI-H226 lung
OVCAR-5 ovarian = tested on: OVCAR-5 ovarian
KM12 colon = tested on: KM12 colon
786-0 renal = tested on: 786-0 renal
SN12C renal = tested on: SN12C renal
HL-60(TB) leukemia = tested on: HL-60(TB) leukemia
NCI-H460 lung = tested on: NCI-H460 lung
DMS 273 small cell lung = tested on: DMS 273 small cell lung
SK-MEL-5 melanoma = tested on: SK-MEL-5 melanoma
SK-MEL-2 melanoma = tested on: SK-MEL-2 melanoma
MALME-3M melanoma = tested on: MALME-3M melanoma
K-562 leukemia = tested on: K-562 leukemia
SW-620 colon = tested on: SW-620 colon
M14 melanoma = tested on: M14 melanoma
SNB-19 CNS = tested on: SNB-19 CNS
A498 renal = tested on: A498 renal
CCRF-CEM leukemia = tested on: CCRF-CEM leukemia
COLO 205 colon = tested on: COLO 205 colon
HCC-2998 colon = tested on: HCC-2998 colon
KM20L2 colon = tested on: KM20L2 colon

In the case of CCCCCCCCCCC(O)CCCCCCC(=O)O (stereo not given), the TGI (DMS 114 small cell lung) is reported as 56.2 µM, the TGI (NCI-H522 lung) is reported as 62.5 µM and the TGI (EKVX NSCLC) is reported as > 100 µM. The TGI (SF-268 CNS) was > 100 µM, the TGI (HCT-116 colon) was 33.3 µM and the TGI (RXF-631 renal) was 39.1 µM. For the same compound, the TGI (UO-31 renal) was > 100 µM, the TGI (RXF 393 renal) was 98 µM and the TGI (SNB-75 CNS) was > 100 µM. It also gave a TGI (OVCAR-3 ovarian) of 45.3 µM, a TGI (LOX IMVI melanoma) of 31.1 µM and a TGI (OVCAR-8 ovarian) of 31.1 µM. For the same compound, the TGI (SF-295 CNS) was 80.8 µM, the TGI (M19-MEL melanoma) was > 100 µM and the TGI (TK-10 renal) was > 100 µM. For the same compound, the TGI (SNB-78 CNS) was > 100 µM, the TGI (HOP-92 NSCLC) was 37.3 µM and the TGI (A549 NSCLC) was 54.7 µM. The TGI (HT29 colon) was 40.6 µM, the TGI (RPMI-8226 leukemia) was 28.2 µM and the TGI (IGROV1 ovarian) was 34.6 µM. For the same compound, the TGI (HOP-18 NSCLC) was 63 µM, the TGI (UACC-62 melanoma) was 41.7 µM and the TGI (CAKI-1 renal) was > 100 µM. For the same compound, the TGI (MOLT-4 leukemia) was 34.5 µM, the TGI (XF 498 CNS) was 88.9 µM and the TGI (U251 CNS) was 45.8 µM. The TGI (LXFL 529 NSCLC) was 71 µM, the TGI (OVCAR-4 ovarian) was > 100 µM and the TGI (ACHN renal) was 54 µM. The TGI (SF-539 CNS) was 67.3 µM, the TGI (SK-OV-3 ovarian) was > 100 µM and the TGI (NCI-H23 lung) was > 100 µM. For the same compound, the TGI (DLD-1 colon) was 59.7 µM, the TGI (SR leukemia) was 41.9 µM and the TGI (UACC-257 melanoma) was > 100 µM. The TGI (SK-MEL-28 melanoma) was > 100 µM, the TGI (HOP-62 NSCLC) was > 100 µM and the TGI (NCI-H226 lung) was > 100 µM. The TGI (OVCAR-5 ovarian) was > 100 µM, the TGI (KM12 colon) was 31.6 µM and the TGI (786-0 renal) was 93.3 µM. For the same compound, the TGI (SN12C renal) was 50.7 µM, the TGI (HL-60(TB) leukemia) was 25.6 µM and the TGI (NCI-H460 lung) was 32.4 µM. For the same compound, the TGI (DMS 273 small cell lung) was 55.6 µM, the TGI (SK-MEL-5 melanoma) was 29.9 µM and the TGI (SK-MEL-2 melanoma) was > 100 µM. For the same compound, the TGI (MALME-3M melanoma) was 59.5 µM, the TGI (K-562 leukemia) was 39.1 µM and the TGI (SW-620 colon) was 86.5 µM. For the same compound, the TGI (M14 melanoma) was 44.3 µM, the TGI (SNB-19 CNS) was > 100 µM and the TGI (A498 renal) was 46.1 µM. It also gave a TGI (CCRF-CEM leukemia) of 91.3 µM and a TGI (COLO 205 colon) of 30 µM.

In the case of CC(=O)OCC1(C)C(OC(C)=O)CCC2(C)C(CC(OC(C)=O)C3=CCOC3=O)C(O)(CO)CCC12 (stereo not given), the TGI (NCI-H522 lung) is reported as > 100 µM, the TGI (EKVX NSCLC) is reported as > 100 µM and the TGI (SF-268 CNS) is reported as > 100 µM. For the same compound, the TGI (HCT-116 colon) was > 100 µM, the TGI (RXF-631 renal) was > 100 µM and the TGI (UO-31 renal) was > 100 µM. The TGI (RXF 393 renal) was > 100 µM, the TGI (SNB-75 CNS) was > 100 µM and the TGI (OVCAR-3 ovarian) was > 100 µM. For the same compound, the TGI (LOX IMVI melanoma) was > 100 µM, the TGI (OVCAR-8 ovarian) was > 100 µM and the TGI (SF-295 CNS) was > 100 µM. For the same compound, the TGI (M19-MEL melanoma) was > 100 µM, the TGI (HCC-2998 colon) was > 100 µM and the TGI (TK-10 renal) was > 100 µM. For the same compound, the TGI (SNB-78 CNS) was > 100 µM, the TGI (HOP-92 NSCLC) was > 100 µM and the TGI (A549 NSCLC) was > 100 µM. For the same compound, the TGI (HT29 colon) was > 100 µM, the TGI (RPMI-8226 leukemia) was > 100 µM and the TGI (IGROV1 ovarian) was > 100 µM. For the same compound, the TGI (HOP-18 NSCLC) was > 100 µM, the TGI (UACC-62 melanoma) was > 100 µM and the TGI (CAKI-1 renal) was > 100 µM. For the same compound, the TGI (XF 498 CNS) was > 100 µM, the TGI (U251 CNS) was > 100 µM and the TGI (LXFL 529 NSCLC) was > 100 µM. For the same compound, the TGI (KM20L2 colon) was > 100 µM, the TGI (OVCAR-4 ovarian) was > 100 µM and the TGI (ACHN renal) was > 100 µM. The TGI (SF-539 CNS) was > 100 µM, the TGI (SK-OV-3 ovarian) was > 100 µM and the TGI (NCI-H23 lung) was > 100 µM. The TGI (DLD-1 colon) was > 100 µM, the TGI (UACC-257 melanoma) was > 100 µM and the TGI (SK-MEL-28 melanoma) was > 100 µM. For the same compound, the TGI (HOP-62 NSCLC) was > 100 µM, the TGI (NCI-H226 lung) was > 100 µM and the TGI (OVCAR-5 ovarian) was > 100 µM. The TGI (KM12 colon) was > 100 µM, the TGI (786-0 renal) was > 100 µM and the TGI (SN12C renal) was > 100 µM. The TGI (HL-60(TB) leukemia) was > 100 µM, the TGI (NCI-H460 lung) was > 100 µM and the TGI (DMS 273 small cell lung) was > 100 µM. The TGI (SK-MEL-5 melanoma) was > 100 µM, the TGI (MALME-3M melanoma) was > 100 µM and the TGI (K-562 leukemia) was > 100 µM. The TGI (SW-620 colon) was > 100 µM, the TGI (M14 melanoma) was > 100 µM and the TGI (SNB-19 CNS) was > 100 µM. The TGI (A498 renal) was > 100 µM, the TGI (CCRF-CEM leukemia) was > 100 µM and the TGI (COLO 205 colon) was > 100 µM.
